The source of these data is US9556148B2, “N-cyanomethylamides as inhibitors of janus kinase” (CADILA HEALTHCARE LIMITED, priority 2013, dated 2017).

Assay [1] concerns the target recombinant purified human JAK2 (Homo sapiens (Human), UniProt O60674). The assay can be described thus: in vitro JAK kinase assay on ADP Glo platform, JAK2. It is filed as biochemical. Particulars: 50 μM ATP, 1 hr at room temperature; read-out: JAK-2 IC50. As to the method: (§1) NCEs were screened using in vitro JAK (1, 2 and 3) kinase assay on ADP Glo platform (Promega). Fixed amount of recombinant purified human JAK (25 ng of JAK1 and 10 ng of JAK2 and JAK3 per reaction, from Life Technologies Ltd) were incubated with increasing concentration of NCEs in 1× kinase reaction buffer (40 mM Tris-Cl, pH7.5, 20 mM MgCl2, 0.1 mg/ml BSA and 50 μM DTT). Enzymatic reaction was initiated by adding a substrate cocktail containing 50 μM of ATP (final concentration) and 5 μg for JAK1 and 2.5 μg for JAK2 and JAK3 of polyGln4Tyr1 (Signal Chem) in total 25 μl of reaction in 96 well plate. The reaction was incubated at room temperature for 1 hr.
(§2) After 1 hr of incubation equal volume (25 μl per reaction) of ADP Glo was added and incubated at room temperature for 40 min.
(§3) This was followed by addition of kinase detection reagent (50 μl per reaction) and incubation at room temperature for 30 min. Finally, plate was read for luminescence at an integration time of 500 millisecond per well.
(§4) Data were plotted taking Enzyme with no inhibitor set as the 100% kinase activity. IC50 values were calculated using Graph Pad Prism software.
(ADP-Glo turns the ADP formed in a reaction into a luminescent signal.)

Assay [2] concerns the target recombinant purified human JAK1 (Homo sapiens (Human), UniProt P23458). The assay can be described thus: in vitro JAK kinase assay on ADP Glo platform, JAK1. The class given is biochemical. To be noted: 50 μM ATP, 1 hr at room temperature. How it is done:
as §1, §2, §3, §4

Assay [3] concerns PGPS arthritis, PAW inflammation. The assay can be described thus: Peptidogylcan Polysaccharide Polymers (PGPS) arthritis. The class given is in vivo, Sprague dawley rats. To be noted: rats, values for day 16. As to the method: Female Sprague dawley rats were primed with an intra-articular injection of 20 μl of PGPS at 0.5 mg/ml of rhamnose in the right ankle. At 2 weeks the ankle diameters were measured with plethysmometer and rats assigned to groups of similar distribution of initial joint diameters. Rats then received their first dose of compound followed 1 h later by an i.v. injection of 0.5 ml of PGPS (0.5 mg/ml of rhamnose) in the tail vein. Compounds were dosed at 10 mg/kg and ankle diameters measured for 3 days [i.e. day 15, 16, 17]. Values are given for day 16.

In assay [4] the target is recombinant purified human JAK3 (Homo sapiens (Human), UniProt P52333). The assay can be described thus: in vitro JAK kinase assay on ADP Glo platform, JAK3. It is filed as biochemical. Particulars: 50 μM ATP, 1 hr at room temperature; read-out: JAK-3 IC50. How it is done: as §1, §2, §3, §4
Sequence of recombinant purified human JAK3 (P52333 whole entry): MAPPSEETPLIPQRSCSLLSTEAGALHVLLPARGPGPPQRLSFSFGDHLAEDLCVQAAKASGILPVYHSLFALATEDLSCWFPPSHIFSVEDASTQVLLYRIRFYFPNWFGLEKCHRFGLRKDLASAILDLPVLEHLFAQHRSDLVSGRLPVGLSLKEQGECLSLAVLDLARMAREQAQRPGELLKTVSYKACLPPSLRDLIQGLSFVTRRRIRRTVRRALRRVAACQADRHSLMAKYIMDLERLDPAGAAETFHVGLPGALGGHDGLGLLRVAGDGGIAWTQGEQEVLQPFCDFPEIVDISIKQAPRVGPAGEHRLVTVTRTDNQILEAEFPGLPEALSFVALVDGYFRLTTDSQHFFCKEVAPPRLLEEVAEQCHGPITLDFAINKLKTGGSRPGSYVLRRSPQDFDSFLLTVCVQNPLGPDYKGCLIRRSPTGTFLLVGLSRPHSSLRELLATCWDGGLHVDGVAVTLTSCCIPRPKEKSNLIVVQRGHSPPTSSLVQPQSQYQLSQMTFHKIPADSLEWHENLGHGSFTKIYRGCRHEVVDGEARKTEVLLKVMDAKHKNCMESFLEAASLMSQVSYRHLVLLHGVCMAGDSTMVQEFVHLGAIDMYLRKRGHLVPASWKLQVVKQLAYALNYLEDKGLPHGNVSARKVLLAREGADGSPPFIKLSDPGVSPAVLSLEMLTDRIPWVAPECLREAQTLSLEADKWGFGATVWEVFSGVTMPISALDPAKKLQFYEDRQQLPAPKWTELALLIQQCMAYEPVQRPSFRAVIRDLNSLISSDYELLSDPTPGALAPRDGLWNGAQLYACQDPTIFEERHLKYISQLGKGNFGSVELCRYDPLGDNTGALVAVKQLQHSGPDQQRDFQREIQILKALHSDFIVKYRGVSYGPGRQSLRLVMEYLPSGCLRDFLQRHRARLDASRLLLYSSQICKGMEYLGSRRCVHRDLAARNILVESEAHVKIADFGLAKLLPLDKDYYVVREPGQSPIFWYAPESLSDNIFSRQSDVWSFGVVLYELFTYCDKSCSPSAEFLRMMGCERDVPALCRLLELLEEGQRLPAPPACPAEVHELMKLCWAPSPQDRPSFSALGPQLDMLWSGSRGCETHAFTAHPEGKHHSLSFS
In a further assay the target is JAK 2 (Homo sapiens (Human), UniProt O60674). To be noted: reported in WO 2008109943; read-out: reported in vitro JAK 2 inhibition; cited from earlier work.
Sequence of JAK 2 (O60674 whole entry, species assumed): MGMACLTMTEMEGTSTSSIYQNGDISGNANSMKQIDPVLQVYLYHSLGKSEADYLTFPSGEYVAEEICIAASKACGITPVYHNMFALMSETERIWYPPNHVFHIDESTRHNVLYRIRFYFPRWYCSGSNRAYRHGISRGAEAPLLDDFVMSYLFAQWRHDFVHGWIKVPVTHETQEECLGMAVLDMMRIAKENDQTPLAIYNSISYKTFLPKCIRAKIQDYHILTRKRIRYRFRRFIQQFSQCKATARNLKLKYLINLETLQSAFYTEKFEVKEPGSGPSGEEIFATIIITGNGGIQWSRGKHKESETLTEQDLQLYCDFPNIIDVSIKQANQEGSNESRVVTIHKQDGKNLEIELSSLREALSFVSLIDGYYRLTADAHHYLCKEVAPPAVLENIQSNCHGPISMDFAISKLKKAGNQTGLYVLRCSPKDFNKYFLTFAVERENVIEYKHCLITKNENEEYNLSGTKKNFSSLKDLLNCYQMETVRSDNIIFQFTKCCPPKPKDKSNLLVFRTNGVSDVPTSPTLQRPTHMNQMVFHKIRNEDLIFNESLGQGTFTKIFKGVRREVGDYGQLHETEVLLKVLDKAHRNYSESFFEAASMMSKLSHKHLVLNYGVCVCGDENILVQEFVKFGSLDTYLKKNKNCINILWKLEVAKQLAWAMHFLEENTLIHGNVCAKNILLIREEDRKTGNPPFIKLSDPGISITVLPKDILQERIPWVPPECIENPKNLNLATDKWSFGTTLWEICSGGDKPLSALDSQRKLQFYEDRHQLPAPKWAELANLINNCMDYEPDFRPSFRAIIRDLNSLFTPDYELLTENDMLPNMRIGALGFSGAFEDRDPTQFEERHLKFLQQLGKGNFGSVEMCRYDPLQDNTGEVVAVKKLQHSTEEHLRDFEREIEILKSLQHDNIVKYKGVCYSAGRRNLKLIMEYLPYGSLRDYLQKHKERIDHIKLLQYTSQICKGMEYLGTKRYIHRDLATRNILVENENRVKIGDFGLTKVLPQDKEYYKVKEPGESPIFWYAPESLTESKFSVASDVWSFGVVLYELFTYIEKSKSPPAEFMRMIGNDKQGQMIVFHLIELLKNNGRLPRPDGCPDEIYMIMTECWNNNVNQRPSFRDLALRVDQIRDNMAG
The next assay has as its target JAK-3 (Homo sapiens (Human), UniProt P52333). To be noted: reported in WO 2008109943; read-out: reported in vitro JAK-3 inhibition; cited from earlier work.

A value given as a limit tells only on which side of the number the result lay.

Sequence of recombinant purified human JAK2 (O60674 whole entry): as the sequence (O60674 whole entry, species assumed) above
Sequence of recombinant purified human JAK1 (P23458 whole entry): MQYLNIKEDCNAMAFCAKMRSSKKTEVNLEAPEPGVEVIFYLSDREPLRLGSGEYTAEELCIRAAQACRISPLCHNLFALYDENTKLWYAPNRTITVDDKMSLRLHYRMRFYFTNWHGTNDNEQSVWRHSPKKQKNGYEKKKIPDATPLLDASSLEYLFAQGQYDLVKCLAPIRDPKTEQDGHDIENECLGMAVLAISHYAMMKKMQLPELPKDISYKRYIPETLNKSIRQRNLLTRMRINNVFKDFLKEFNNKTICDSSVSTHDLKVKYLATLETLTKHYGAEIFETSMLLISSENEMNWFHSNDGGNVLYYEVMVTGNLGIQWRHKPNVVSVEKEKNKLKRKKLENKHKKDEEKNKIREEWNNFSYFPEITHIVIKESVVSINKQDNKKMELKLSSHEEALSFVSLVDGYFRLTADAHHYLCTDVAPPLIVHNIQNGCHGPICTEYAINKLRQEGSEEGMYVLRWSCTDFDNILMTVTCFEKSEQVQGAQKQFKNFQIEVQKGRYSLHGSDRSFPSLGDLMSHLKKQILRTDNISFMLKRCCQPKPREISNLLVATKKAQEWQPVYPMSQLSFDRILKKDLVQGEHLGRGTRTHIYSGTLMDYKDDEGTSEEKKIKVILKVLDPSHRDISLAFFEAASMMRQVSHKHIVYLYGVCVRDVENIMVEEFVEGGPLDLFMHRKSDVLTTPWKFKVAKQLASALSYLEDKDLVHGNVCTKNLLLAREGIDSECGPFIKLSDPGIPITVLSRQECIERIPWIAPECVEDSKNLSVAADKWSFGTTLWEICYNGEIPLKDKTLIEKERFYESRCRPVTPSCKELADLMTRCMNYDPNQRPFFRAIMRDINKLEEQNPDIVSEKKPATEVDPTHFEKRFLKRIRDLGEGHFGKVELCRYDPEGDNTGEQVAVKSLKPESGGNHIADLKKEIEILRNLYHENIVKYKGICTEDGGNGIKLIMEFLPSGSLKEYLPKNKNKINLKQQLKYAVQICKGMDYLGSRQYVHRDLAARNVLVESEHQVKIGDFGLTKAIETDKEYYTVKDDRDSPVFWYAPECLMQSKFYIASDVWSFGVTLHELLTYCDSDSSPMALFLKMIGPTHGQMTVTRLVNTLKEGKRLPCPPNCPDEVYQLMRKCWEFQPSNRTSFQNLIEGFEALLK
Sequence of JAK-3 (P52333 whole entry, species assumed): as the sequence (P52333 whole entry) above

In the case of `N#CCNC(=O)c1ccc(-c2ccnc(Nc3ccc(N4CCC(n5cncn5)CC4)cc3)n2)cc1` [Example 4, 4-(2-((4-(4-(1H-1,2,4-triazol-1-yl)piperidin-1-yl)phenyl)amino)pyrimidin-4-yl)-N-(cyanomethyl)benzamide], the IC50 in assay [1] amounted to 17 nM; in assay [2], 21 nM; in assay [4], 66 nM. Further, the “% Reduction in PAW inflammation at dose 10 mg/Kg” value (“% Reduction in PAW inflammation” for short) in assay [3] worked out at 52%.

With `N#CCNC(=O)c1ccc(-c2ccnc(Nc3ccc(N4CCC(N5CCC6(CCCO6)CC5)CC4)cc3)n2)cc1` [Example 24, 4-(2-((4-(4-(1-oxa-8-azaspiro[4.5]decan-8-yl)piperidin-1-yl)phenyl)amino)pyrimidin-4-yl)-N-(cyanomethyl)benzamide], the figures for the IC50 in assay [1], in assay [2] and in assay [4] were 5 nM, 5 nM and 23 nM, respectively. Also, the “% Reduction in PAW inflammation” value in assay [3] is reported as 41%.

With `N#CCNC(=O)c1ccc(-c2ccnc(Nc3ccc(N4CCC(N5CCOCC5)CC4)cc3)n2)cc1` [Example 3, N-(cyanomethyl)-4-(2-((4-(4-morpholinopiperidin-1-yl)phenyl)amino)pyrimidin-4-yl)benzamide], in assay [3], the “% Reduction in PAW inflammation” value turned out to be 56%.

As to `N#CCNC(=O)c1ccc(-c2ccnc(Nc3ccc(N4CCC(N5CCCC5=O)CC4)cc3)n2)cc1` [Example 1, N-(cyanomethyl)-4-(2-((4-(4-(2-oxopyrrolidin-1-yl)piperidin-1-yl)phenyl)amino)pyrimidin-4-yl)benzamide], the IC50 in assay [2] is 12.1 nM; in assay [4], 72 nM. Also, the “% Reduction in PAW inflammation” value in assay [3] was found to be 51%.

Turning to `N#CCNC(=O)c1ccc(-c2ccnc(Nc3ccc(N4CCC(c5n[nH]c(=O)o5)CC4)cc3)n2)cc1` [Example 29, N-(cyanomethyl)-4-(2-((4-(4-(5-oxo-4,5-dihydro-1,3,4-oxadiazol-2-yl)piperidin-1-yl)phenyl)amino)pyrimidin-4-yl)benzamide], the results for the IC50 in assay [1], in assay [2] and in assay [4] were 21 nM, 15 nM and 56 nM, respectively. The “% Reduction in PAW inflammation” value in assay [3] is given as 43%.

Regarding `Cc1nnc(C2CCN(c3ccc(Nc4nccc(-c5ccc(C(=O)NCC#N)cc5)n4)cc3)CC2)o1` [Example 25, N-(cyanomethyl)-4-(2-((4-(4-(5-methyl-1,3,4-oxadiazol-2-yl)piperidin-1-yl)phenyl)amino)pyrimidin-4-yl)benzamide], in assay [2], the IC50 stood at 12 nM. For the same compound, the “% Reduction in PAW inflammation” value in assay [3] came to 63%.

In the case of `N#CCNC(=O)c1ccc(-c2ccnc(Nc3ccc(N4CCC(N5CC6CC(C5)O6)CC4)cc3)n2)cc1` [Example 17, 4-(2-((4-(4-(6-oxa-3-azabicyclo[3.1.1]heptan-3-yl)piperidin-1-yl)phenyl)amino)pyrimidin-4-yl)-N-(cyanomethyl)benzamide], the results for the IC50 in assay [1], in assay [2] and in assay [4] were 8 nM, 13 nM and 69 nM, respectively. The “% Reduction in PAW inflammation” value in assay [3] was found to be 57%.

Take `N#CCNC(=O)c1ccc(-c2ccnc(Nc3ccc(ON4CCC(N5CCCC5)CC4)cc3)n2)cc1` [compounds 2]: the IC50 at JAK 2 is under 1000 nM; at JAK-3, under 20000 nM.

On to `N#CCNC(=O)c1ccc(-c2ccnc(Nc3ccc(N4CCC(N5CCCS5(=O)=O)CC4)cc3)n2)cc1` [Example 2, N-(cyanomethyl)-4-(2-((4-(4-(1,1-dioxidoisothiazolidin-2-yl)piperidin-1-yl)phenyl)amino)pyrimidin-4-yl)benzamide], for which the IC50 in assay [1] worked out at 4 nM; in assay [2], 5.1 nM; in assay [4] it was 51 nM.
